Results on nine molecules are retold here after publication PMC3303745, “Elucidation of the Rotavirus NSP4-Caveolin-1 and -Cholesterol Interactions Using Synthetic Peptides” (Journal of Amino Acids, 2012).

Where “and” joins values, the source holds several entries; their conditions need not be identical. Equal values may be shown once.

What is called Kd is a measure of binding affinity in units of concentration. Lower therefore signals higher affinity.

For data set [1], the system named is RV-infected MDCK cells. In words: Treatment of RV-infected MDCK cells with cholesterol-altering drugs, NSP4 transport by immunofluorescence. Type of data set: cell-based. Particulars: RV-infected MDCK cells (MOI 2, 12 hpi), treated in triplicate at recommended effective dose; stained with anti-NSP4_150-175 and anti-rabbit-IgG-FITC; compared to untreated infected cells. As for the experimental part: MDCK cells were infected with RV at a multiplicity of infection (MOI) of 2 and incubated for 12 hpi. The cells were washed and treated in triplicate with the cholesterol altering drugs, fillipin [40], and nystatin [41] exactly as described. Chlorpromazine and nocodazole were utilized as negative and positive controls, respectively. Cells were fixed with methanol : acetone (1 : 1) at −20°C for 10 min, blocked with 5% dry milk for 20 min, incubated with anti-NSP4_150-175 and anti-rabbit-IgG-FITC, and examined under a UV microscope (Zeiss). The cell surface carefully was observed and the presence or absence of fluorescence carefully noted. Comparisons also were made to untreated cells. Primary and secondary antibody controls were negative. To ensure the lack of drug toxicity, a separate set of cells were treated and then stained with trypan blue.

For data set [2] the following is noted: cited from earlier work.
Data set [3] has as its target T1, NSP4_112-140 (Rotavirus A, UniProt P04512). Type of data set: physicochemical.
A short description of data set [4]: Circular dichroism, percent α-helix of single peptides. Type of data set: physicochemical. Particulars: CD, from molar ellipticity at 222 nm, mean ± SD, n = 4; for Percent α-helix, 50% TFE: peptide 15–35 μM in 50% trifluoroethanol; for Percent α-helix, 1 mM SUV: peptide 15–35 μM with 1 mM SUV (55 : 35 : 10, POPC/cholesterol/DOPS); for Percent α-helix, Aqueous Buffer: peptide 15–35 μM, 10 mM potassium phosphate buffer pH 7.4.

Data set [5] concerns the target T1, NSP4_112-140. Type of data set: binding.
Data set [6] concerns the target T2, Cy3-N-Cav_(19-40) (caveolin-1 aa 19-40, Cy3-labelled) (not fully specified).
T2 construct: also called Cy3-Cav_(19-40); N-caveolin-1_(19-40)
T2 peptide: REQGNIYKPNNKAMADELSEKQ
The experiment in a line: other fluorescence titration. To be noted: both partners purified.

Consider `CN(C)CCCN1c2ccccc2Sc2ccc(Cl)cc21` [Chlorpromazine], for which the “Results: NSP4 transport to the cell surface” value (shortened to “Results: NSP4 transport”) in data set [1] was “Normal NSP4 transport to the PM”.

For the molecule `CCCCC[C@@H](O)[C@H]1C(=O)O[C@H](C)[C@@H](O)/C=C/C=C/C=C/C=C/C=C(\C)[C@@H](O)C[C@H](O)C[C@H](O)C[C@H](O)C[C@H](O)C[C@H](O)C[C@@H]1O` [Fillipin], the “Results: NSP4 transport” value in data set [1] is given as “Disrupted NSP4 transport”.

Consider `COC(=O)Nc1nc2ccc(C(=O)c3cccs3)cc2[nH]1` [Nocodazole], for which the “Results: NSP4 transport” value in data set [1] is “Disrupted NSP4 transport”.

Turning to `C[C@@H]1[C@H](O)[C@@H](C)/C=C/C=C/CC/C=C/C=C/C=C/C=C/C(O[C@H]2O[C@H](C)[C@@H](O)[C@H](N)[C@@H]2O)CC2O[C@](O)(CC(O)C(O)CCC(O)CC(O)CC(O)CC(=O)O[C@H]1C)CC(O)C2C(=O)O` (stereo partly shown) [Nystatin], in data set [1], the “Results: NSP4 transport” value is “Disrupted NSP4 transport”.

As for `CC(C)CCC[C@@H](C)[C@H]1CC[C@H]2[C@@H]3CC=C4C[C@@H](O)CC[C@]4(C)[C@H]3CC[C@]12C` [cholesterol], the “critical micellar concentration (CMC)” value in data set [2] was 25 to 40 nM.

Regarding “EAVGKIFSNVRINLQKEI [C-Cav161-178, caveolin-1 C-terminal peptide aa 161–178]”, in data set [3], the “% helical content, Observed, 1 mM SUV” value stood at 51.9 ± 2.4%; the “% helical content, Observed, 50% TFE” value was found to be 44.2 ± 10.6 %; the “% helical content, Observed, Aqueous buffer” value is reported as 25.0 ± 1.7 %; the “% helical content, Theoretical, 1 mM SUV” value is recorded as 49.5 ± 6.2%. For the same molecule, in data set [3], the “% helical content, Theoretical, 50% TFE” value is listed as 67.8 ± 3.2% and the “% helical content, Theoretical, Aqueous buffer” value came out at 35.3 ± 1.6%. Moreover, in data set [4], the “Percent α-helix, 50% TFE” value worked out at 57.4 ± 4.4%; the “Percent α-helix, 1 mM SUV” value worked out at 42.5 ± 10.6%; the “Percent α-helix, Aqueous Buffer” value is listed as 43.4 ± 3.8%.

On to “FEDVIAEPEGTHS [Cav68-80, caveolin-1 central region peptide aa 68–80, negative control]”, for which, in data set [3], the “% helical content, Observed, 1 mM SUV” value is 31.3 ± 0.2%; the “% helical content, Observed, 50% TFE” value was found to be 45.9 ± 2.8%; the “% helical content, Observed, Aqueous buffer” value turned out to be 24.2 ± 0.3%; the “% helical content, Theoretical, 1 mM SUV” value was 37.5 ± 1.9%. Moreover, in data set [3], the “% helical content, Theoretical, 50% TFE” value amounted to 49.8 ± 1.8% and the “% helical content, Theoretical, Aqueous buffer” value was 23.9 ± 0.7%. Moreover, in data set [4], the “Percent α-helix, 50% TFE” value is 23.1% and 24.4 ± 0.8%; the “Percent α-helix, 1 mM SUV” value came to 21.4 ± 2.0%; the “Percent α-helix, Aqueous Buffer” value came out at 23.4 ± 0.9%.

Consider “SGGKYVDSEGHLYTVPIRE [N-Cav2-20, caveolin-1 N-terminal peptide aa 2–20]”, for which, in data set [3], the “% helical content, Observed, 1 mM SUV” value stood at 34.7 ± 6.0%; the “% helical content, Observed, 50% TFE” value came out at 46.3 ± 7.2%; the “% helical content, Observed, Aqueous buffer” value is listed as 21.7 ± 0.8%; the “% helical content, Theoretical, 1 mM SUV” value came out at 37.7 ± 1.9%. Moreover, in data set [3], the “% helical content, Theoretical, 50% TFE” value came to 47.6 ± 1.8% and the “% helical content, Theoretical, Aqueous buffer” value is given as 23.6 ± 2.6%. For the same molecule, in data set [4], the “Percent α-helix, 50% TFE” value is on record as 16.5 ± 0.9%; the “Percent α-helix, 1 mM SUV” value stood at 18.5 ± 1.9%; the “Percent α-helix, Aqueous Buffer” value stood at 18.9 ± 2.8%. The “fold increase in affinity in presence of SUV over absence of membranes” value in data set [5] was around 3 fold.

In turn, MIDKLTTREIEQVELLKRIYDKLTVQTTG (also called NSP4 (aa 112-140)) [NSP4_(112-140) peptide (rotavirus nonstructural protein 4, aa 112-140)] had a Kd in data set [6] of 40 nM.
